According to PMC7561186, “Rational design of balanced dual-targeting antibiotics with limited resistance” (PLoS Biology, 2020):
Values joined by “and” are separate entries in the source; they are usually repeats but may differ in a detail not shown here. Identical values can stand only once. Like-named read-outs stand apart in the source and are kept apart here.

Tests used:
[1] = Pharmacokinetics measurement in skin tissue; assay type: in vivo, mice; settings: for Drug concentration in mouse skin tissue (individual mice) / Drug concentration in mouse skin tissue, Mean: 73 h, 3 days twice-a-day topical 20 μL ointment containing 2% drug; for Drug concentration in mouse skin tissue, Mean: n = 3; for skin concentration as multiple of the MIC in wild-type S. aureus VISA: topical treatment, mouse skin
Method: Pharmacokinetics measurement of ULD1 and ULD2 in skin tissue was conducted parallelly with the mice dermal infection study. In all cases, skin tissue samples were collected at the termination and homogenized following the same method as homogenate preparation for bacterial enumeration. Before measurement, protein precipitation was performed by treating the samples with acetonitrile. Analytics were the performed by liquid chromatography coupled mass spectrometry (LC/MS/MS) on an AB SCIEX QTRAP mass spectrometer in electrospray, positive ions ionization mode, and with Multiple Reaction Monitoring scan mode. Samples were analyzed on a Phenomenex Luna 5u Phenyl-Hexyl 50 × 2.0 mm HPLC column in a mobile phase of A: acetonitrile/formic acid = 100/0.2 (v/v), and mobile phase of B: water / formic acid = 100/0.2 (v/v). The column’s temperature was set to 30 °C, the injection volumes were 10 μL, and measurement time was 5 minutes in all cases. Oxybutynin (0.01 ng/μL in acetonitrile) was used as an internal standard for the measurement. Finally, the concentration of the drug in tissue samples was calculated from the peak area ratio.

[2] = system: S. aureus ATCC 700699 (VISA); assay: microbe, parasite or virus in culture; assay type: cell-based; settings: for MIC: Staphylococcus aureus, read-out: MIC in adapted strains; for increase in MIC in adapted strains compared with the wild-type strain: lineages adapted to the same compound, S. aureus VISA
Method: Adaptive laboratory evolution experiments followed an established protocol for automated laboratory evolution and aimed to maximize the drug-resistance increment during a fixed time period. […] Experiments were conducted in 96-well plates, in MHBII medium, by utilizing a checkerboard layout to minimize and monitor cross-contamination. These 96-well deep-well plates (0.5 mL, polypropylene, V-bottom) were covered with sandwich covers (Enzyscreen BV) to ensure an optimal oxygen exchange rate and limit evaporation and were shaken at 150 rpm, 37 °C. […] Following cell transfer, each culture was allowed to grow for 48 hours. At each transfer, cell growth was monitored by measuring the OD600 in a BioTek Synergy 2 plate reader. […] Accordingly, only 1 of the 4 populations was retained for each independently evolving strain. This protocol was designed to avoid population extinction and to ensure that populations with the highest level of resistance are propagated further during adaptive evolution. […] Adaptation of populations was terminated after 20 transfers, i.e., 40 days. Following adaptation, cells from each final population were spread onto MHBII agar plates, and individual colonies were isolated. Next, one colony from each adapted line were subjected to capillary sequencing of gyrB and parE to assess their genotype.

[3] = system: S. aureus VISA ATCC 700699 GyrB / ParE mutants; assay: MIC of spontaneous resistant mutants (single-step and second-step); assay type: cell-based; settings: for MIC: Staphylococcus aureus
Method: MICs were determined using a standard serial broth microdilution technique according to the CLSI guidelines. Briefly, bacterial strains were inoculated onto MHBII agar plates and were grown overnight at 37 °C. Next, 3 individual colonies from each strain were inoculated into 1 mL MHBII medium and propagated at 37 °C, 250 rpm overnight. In the cases of Enterococcus and Streptococcus sp., cells were plated to BHI agar plates, and BHI broth was used to determine MICs. […] Following dilutions, each well was seeded with 5×10^4 bacterial cells. All measurements were performed in 3 parallel replicates and to avoid possible edge effects in microwell plates, side rows (A and H) were filled with sterile medium. Following inoculations, plates were covered with lids and wrapped in polyethylene plastic bags to minimize evaporation but allow for O2 transfer. Plates were incubated at 37 °C under continuous shaking at 150 rpm for 18 hours. After incubation, OD600 of each well was measured using a BioTek Synergy 2 microplate reader.

MCF-7 cells = settings: LDH assay
Method: Cytotoxicity of compounds on HepG2 and MCF-7 mammalian cell lines was determined by using a standard LDH assay. Briefly, HepG2 and MCF-7 cells were cultured in Eagle’s MEM medium (from Gibco) supplemented with 2 mM L-glutamine (Sigma), 100 U/mL penicillin (Sigma), and 100 μg/mL streptomycin (Sigma), and 10% FBS (Gibco) at 37 °C and under 5% CO2. Next, LDH assays were performed according to manufacturer instructions (Thermo Fisher Scientific, Massachusetts, USA). By using a CyQUANT LDH Cytotoxicity Assay Kit. Firstly, the cells were seeded in 96-well microtiter plates at 10^5 cells/mL (100 μL/well) and allowed to attach overnight. […] Lysis buffer (10 μL, Thermo Fisher Scientific) was then added to the maximal LDH activity control wells and incubated additional 45 minutes. The cell culture supernatant (50 μL) was then transferred to a new 96-well plate and mixed with 50 μL of the reaction mixture. After 30 minutes on room temperature, reactions were stopped with 50 μL of the Stop solution. Absorbance (490 nm and 680 nm) was measured with the automatic microplate reader Synergy 4 Hybrid Microplate Reader (BioTek, VT, USA). All experiments were performed in triplicates and repeated 3 times. Statistical significance (P < 0.05) was calculated with 2-tailed Welch’s t-test between treated groups and DMSO. The percentage of cytotoxicity was determined according to the following equation: %Cytotoxicity=(CompoundtreatedLDHactivity-SpontaneousLDHactivity/MaximumLDHactivity-SpontaneousLDHactivity)*100

[4] = system: S. aureus Mu50 (VISA) ATCC 700699; assay: Neutropenic thigh infection model; assay type: in vivo, CD-1 mice; settings: for Log CFU/g thigh: neutropenic thigh infection, Staphylococcus aureus Mu50 ATCC 700699 (VISA), individual animals
Method: Neutropenic mouse thigh infection experiments were performed on female CD-1 mice (Charles River Laboratories, USA). To induce neutropenia, mice received 2 doses of cyclophosphamide on days -4 and -1 with 150 mg/kg, and 100 mg/kg delivered intraperitoneally (IP), respectively. The inoculum of the testing strain, S. aureus Mu50 (VISA) ATCC 700699, was prepared from overnight agar plate cultures. To prepare bacterial inoculums, a portion of the plate was resuspended in sterile saline and adjusted to an OD of 0.12 at 625 nm. Next, the resulted bacterial suspension was further diluted to reach an infecting inoculum of 6.0×10^5 CFU per each mouse. Mice were inoculated with 100 μL of the prepared bacterial suspension via intramuscular injection into the right rear thigh. Plate counts of the inoculum were also performed in each case to confirm inoculum concentration and the actual inoculum size was 6.9×10^5 CFU/mouse. […] Test agent was then dosed via IV administration at 2, 8, 14, and 20 hours postinfection. Beginning at 2 hours, postinfection mice were dosed with either test article or positive control antibiotic. Mice receiving test agents were dosed intravenously at 10 mL/kg. Linezolid was delivered as a subcutaneous dose. Four animals were dosed per group. One group of 4 mice were euthanized at initiation of therapy (T = 2 hours) and CFUs determined. All remaining mice were euthanized at 26 hours postinfection. At termination, thighs were aseptically excised, weighed, and homogenized to a uniform consistency in 2 mL of sterile saline. The homogenate was serially diluted and plated on bacterial growth media. The CFUs were enumerated after overnight incubation.

[5] = second-step mutant, selection ULD1 at 16× MIC, GyrB I175T, ParE A120D
[6] = second-step mutant, selection ULD1 at 16× MIC, GyrB I175T, ParE F95Y
[7] = second-step mutant, selection ULD1 at 16× MIC, GyrB I175T, ParE T166A
[8] = second-step mutant, selection ULD1 at 16× MIC, GyrB I175T, ParE T166I
[9] = second-step mutant, selection ULD1 at 16× MIC, GyrB R144I, ParE A120D
[10] = second-step mutant, selection ULD1 at 16× MIC, GyrB R144I, ParE F95Y
[11] = second-step mutant, selection ULD1 at 16× MIC, GyrB R144I, ParE R136G
[12] = second-step mutant, selection ULD2 at 8× MIC, GyrB I175T, ParE A120D
[13] = second-step mutant, selection ULD2 at 12× MIC, GyrB R144I, ParE A120D
[14] = second-step mutant, selection ULD2 at 12× MIC, GyrB R144I, ParE F95Y
[15] = second-step mutant, selection ULD2 at 12× MIC, GyrB R144I, ParE R136G

Row | SMILES | Drug concentration in mouse skin tissue (individual mice) [1] | Drug concentration in mouse skin tissue, Mean [1] [ng/mL] | skin concentration as multiple of the MIC in wild-type S. aureus VISA [1] | MIC [2] [µg/mL] | increase in MIC in adapted strains compared with the wild-type strain [2] [fold] | MIC ([3]; VISA GyrB I175T) [µg/mL] | MIC ([3]; VISA GyrB R144G) [µg/mL] | MIC ([3]; VISA GyrB R144I) [µg/mL] | MIC ([3]; VISA wt, read-out: MIC) [µg/mL] | MIC [3, 5] [µg/mL] | MIC [3, 6] [µg/mL] | MIC [3, 7] [µg/mL] | MIC [3, 8] [µg/mL] | MIC [3, 9] [µg/mL] | MIC [3, 10] [µg/mL] | MIC [3, 11] [µg/mL] | MIC [3, 12] [µg/mL] | MIC [3, 13] [µg/mL] | MIC [3, 14] [µg/mL] | MIC [3, 15] [µg/mL] | further results
1 | Cc1[nH]c(C(=O)Nc2nc3c(OCc4ccccc4)cc(C(=O)O)cc3s2)c(Cl)c1Cl [ULD2] | 4224 ng/mL and 6654 ng/mL and 10244 ng/mL | 7041 | up to 300 times the MIC | 0.5 | 25 | 0.088 | 0.058 | 0.058 | 0.02 | 0.25 | 0.25 | 0.125 | 0.25 | 0.25 | 0.125 | 0.25 | 1 | 0.125 | 0.25 | 0.25 | MIC ([3]; second-step mutant, selection ULD1 at 16× MIC, GyrB R144I, ParE R136L): 0.125 µg/mL; concentration inhibiting all isolated double mutants and laboratory evolved strains ([3]; {}): ≤ 1 µg/mL; concentration inhibiting all isolated second-step resistant mutants ([3]; {}): ≤ 1 µg/mL; Max. % inhibition at 100 µM (MCF-7 cells): Max. % inhibition at 100 µM: 8.43%
2 | Cc1[nH]c(C(=O)Nc2nc3ccc(C(=O)O)cc3s2)c(Cl)c1Cl [ULD1] | 8853 ng/mL and 14630 ng/mL and 6624 ng/mL | 10036 | up to 300 times the MIC | 1 | 25 | 0.198 | 0.132 | 0.198 | 0.04 | 4 | 4 | 2 | 2 | 2 | 2 | 2 | 4 | 2 | 2 | 4 | antibacterial activity after intravenous administration ([4]; neutropenic murine thigh infection, S. aureus VISA, comparable to linezolid, in words): potent antibacterial activity; Log CFU/g thigh ([4]; 10 mg/kg): 7.54 Log CFU/g thigh and 7.91 Log CFU/g thigh and 8.09 Log CFU/g thigh and 8.46 Log CFU/g thigh; Log CFU/g thigh ([4]; 25 mg/kg): 6.73 Log CFU/g thigh and 6.88 Log CFU/g thigh and 7.28 Log CFU/g thigh and 6.95 Log CFU/g thigh; Log CFU/g thigh ([4]; 50 mg/kg): 5.41 Log CFU/g thigh and 5.69 Log CFU/g thigh; MIC ([3]; second-step mutant, selection ULD1 at 16× MIC, GyrB I175T, ParE R136G): 4 µg/mL; Max. % inhibition at 100 µM (MCF-7 cells): Max. % inhibition at 100 µM: 0%
3 | CC(=O)NC[C@H]1CN(c2ccc(N3CCOCC3)c(F)c2)C(=O)O1 [Linezolid] | – | – | – | – | – | – | – | – | – | – | – | – | – | – | – | – | – | – | – | – | Log CFU/g thigh ([4]; 50 mg/kg): 5.65 Log CFU/g thigh and 6.12 Log CFU/g thigh and 4.95 Log CFU/g thigh
